Data reported in ChEMBL document CHEMBL5465560, “Selectivity Literature for EUbOPEN Chemogenomic Library” (2024).

What was measured:
[1] = biological target: T1, Myosin light chain kinase family member 4 (Homo sapiens) (UniProt Q86YV6); test: Selectivity interaction (KinomeScan (DiscoverX)) EUB0000229b MYLK4; details: at 10 µM
T1 sequence (whole entry): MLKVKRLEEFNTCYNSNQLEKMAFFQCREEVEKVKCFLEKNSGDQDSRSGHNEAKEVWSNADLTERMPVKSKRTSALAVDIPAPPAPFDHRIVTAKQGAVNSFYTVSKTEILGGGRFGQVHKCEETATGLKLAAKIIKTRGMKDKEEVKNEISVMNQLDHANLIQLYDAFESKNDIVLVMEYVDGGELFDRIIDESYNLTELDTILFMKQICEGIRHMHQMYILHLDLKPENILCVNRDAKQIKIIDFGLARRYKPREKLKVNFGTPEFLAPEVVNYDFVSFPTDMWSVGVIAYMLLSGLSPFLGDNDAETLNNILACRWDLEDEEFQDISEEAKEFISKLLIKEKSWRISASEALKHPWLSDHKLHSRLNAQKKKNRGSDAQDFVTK

[2] = biological target: T2, Dual specificity mitogen-activated protein kinase kinase 4 (Homo sapiens) (UniProt P45985); test: Selectivity interaction (KinomeScan (DiscoverX)) EUB0001550a MAP2K4; details: at 1 µM
T2 sequence (whole entry): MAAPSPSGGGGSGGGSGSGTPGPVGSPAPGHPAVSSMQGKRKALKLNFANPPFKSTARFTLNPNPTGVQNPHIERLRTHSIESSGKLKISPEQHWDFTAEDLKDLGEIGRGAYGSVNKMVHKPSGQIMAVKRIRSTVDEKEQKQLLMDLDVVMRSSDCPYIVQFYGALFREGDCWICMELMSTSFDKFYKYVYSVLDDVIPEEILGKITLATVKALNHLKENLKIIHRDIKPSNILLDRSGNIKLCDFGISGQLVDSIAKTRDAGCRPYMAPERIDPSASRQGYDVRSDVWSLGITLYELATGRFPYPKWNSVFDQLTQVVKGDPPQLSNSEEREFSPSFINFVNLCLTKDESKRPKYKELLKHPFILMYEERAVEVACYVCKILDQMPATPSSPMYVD

[3] = biological target: T3, Serine/threonine-protein kinase ULK2 (Homo sapiens) (UniProt Q8IYT8); test: Selectivity interaction (KinomeScan (DiscoverX)) EUB0000618a ULK2; details: at 10 µM
T3 sequence (whole entry): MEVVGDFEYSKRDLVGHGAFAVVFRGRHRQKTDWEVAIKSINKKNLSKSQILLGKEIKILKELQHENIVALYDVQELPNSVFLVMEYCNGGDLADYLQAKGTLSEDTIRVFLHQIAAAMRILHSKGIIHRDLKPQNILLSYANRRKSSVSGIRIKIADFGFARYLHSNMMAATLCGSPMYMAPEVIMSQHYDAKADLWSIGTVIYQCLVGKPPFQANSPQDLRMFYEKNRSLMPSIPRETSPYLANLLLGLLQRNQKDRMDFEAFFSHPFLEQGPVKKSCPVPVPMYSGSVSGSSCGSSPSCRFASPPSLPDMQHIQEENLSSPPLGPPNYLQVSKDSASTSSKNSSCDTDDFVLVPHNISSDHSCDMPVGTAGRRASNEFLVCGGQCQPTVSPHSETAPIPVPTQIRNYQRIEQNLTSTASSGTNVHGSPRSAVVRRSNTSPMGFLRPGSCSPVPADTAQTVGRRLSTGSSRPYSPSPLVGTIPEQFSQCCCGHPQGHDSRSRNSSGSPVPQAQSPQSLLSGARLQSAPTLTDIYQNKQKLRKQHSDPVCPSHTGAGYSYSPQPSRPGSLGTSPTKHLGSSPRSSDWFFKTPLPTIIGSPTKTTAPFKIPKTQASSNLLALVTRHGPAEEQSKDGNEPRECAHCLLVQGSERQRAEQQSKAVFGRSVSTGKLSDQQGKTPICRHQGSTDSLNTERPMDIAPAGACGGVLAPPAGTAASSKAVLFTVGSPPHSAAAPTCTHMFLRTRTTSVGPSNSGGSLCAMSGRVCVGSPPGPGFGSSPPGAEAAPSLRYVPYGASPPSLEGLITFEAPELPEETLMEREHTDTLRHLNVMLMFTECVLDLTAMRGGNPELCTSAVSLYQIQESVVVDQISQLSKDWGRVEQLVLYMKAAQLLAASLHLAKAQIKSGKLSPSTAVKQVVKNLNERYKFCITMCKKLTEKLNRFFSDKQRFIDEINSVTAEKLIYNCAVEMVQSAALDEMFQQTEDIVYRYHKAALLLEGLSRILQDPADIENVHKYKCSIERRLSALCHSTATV

[4] = biological target: T4, Serine/threonine-protein kinase DCLK3 (Homo sapiens) (UniProt Q9C098); details: at 10 µM
T4 sequence (whole entry): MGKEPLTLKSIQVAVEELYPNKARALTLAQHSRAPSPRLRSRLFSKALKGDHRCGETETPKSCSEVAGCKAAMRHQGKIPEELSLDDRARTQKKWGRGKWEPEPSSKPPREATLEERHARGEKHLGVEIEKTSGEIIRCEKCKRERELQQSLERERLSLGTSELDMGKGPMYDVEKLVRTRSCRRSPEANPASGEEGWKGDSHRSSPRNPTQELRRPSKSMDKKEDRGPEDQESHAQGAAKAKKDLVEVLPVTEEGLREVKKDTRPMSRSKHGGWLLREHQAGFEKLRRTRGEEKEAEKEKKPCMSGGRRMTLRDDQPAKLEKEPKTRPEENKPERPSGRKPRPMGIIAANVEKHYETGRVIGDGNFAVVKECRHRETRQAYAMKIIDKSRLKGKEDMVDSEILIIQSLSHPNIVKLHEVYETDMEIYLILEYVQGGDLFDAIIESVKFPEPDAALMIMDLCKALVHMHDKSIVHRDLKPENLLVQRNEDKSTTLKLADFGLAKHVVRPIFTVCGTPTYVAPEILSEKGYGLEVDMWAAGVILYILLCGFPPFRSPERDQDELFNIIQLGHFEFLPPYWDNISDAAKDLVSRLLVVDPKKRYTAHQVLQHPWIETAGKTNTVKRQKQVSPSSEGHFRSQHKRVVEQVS

[5] = biological target: Serine/threonine-protein kinase 35 (Homo sapiens) (UniProt Q8TDR2); test: Selectivity interaction (KinomeScan (DiscoverX)) EUB0000695a STK35; details: at 100 nM
Sequence of Serine/threonine-protein kinase 35 (Homo sapiens) (Q8TDR2 whole entry): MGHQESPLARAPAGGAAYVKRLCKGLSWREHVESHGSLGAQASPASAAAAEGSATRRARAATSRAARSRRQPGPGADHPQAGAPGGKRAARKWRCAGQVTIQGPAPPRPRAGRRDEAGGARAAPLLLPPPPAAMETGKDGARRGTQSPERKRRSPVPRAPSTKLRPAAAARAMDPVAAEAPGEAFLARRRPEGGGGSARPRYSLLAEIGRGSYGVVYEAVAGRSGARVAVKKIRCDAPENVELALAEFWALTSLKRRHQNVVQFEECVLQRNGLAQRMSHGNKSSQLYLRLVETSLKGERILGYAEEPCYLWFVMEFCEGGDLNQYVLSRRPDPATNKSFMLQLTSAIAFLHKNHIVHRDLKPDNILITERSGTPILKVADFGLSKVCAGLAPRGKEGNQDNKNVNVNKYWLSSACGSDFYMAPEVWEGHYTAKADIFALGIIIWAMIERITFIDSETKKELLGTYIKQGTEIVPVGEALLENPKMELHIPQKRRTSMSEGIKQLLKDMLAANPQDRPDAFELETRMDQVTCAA

[6] = biological target: SRSF protein kinase 3 (Homo sapiens) (UniProt Q9UPE1); test: Selectivity interaction (Kinase panel (Z-LYTE Assay)) EUB0001632a SRPK3; details: at 10 µM
Sequence of SRSF protein kinase 3 (Homo sapiens) (Q9UPE1 whole entry): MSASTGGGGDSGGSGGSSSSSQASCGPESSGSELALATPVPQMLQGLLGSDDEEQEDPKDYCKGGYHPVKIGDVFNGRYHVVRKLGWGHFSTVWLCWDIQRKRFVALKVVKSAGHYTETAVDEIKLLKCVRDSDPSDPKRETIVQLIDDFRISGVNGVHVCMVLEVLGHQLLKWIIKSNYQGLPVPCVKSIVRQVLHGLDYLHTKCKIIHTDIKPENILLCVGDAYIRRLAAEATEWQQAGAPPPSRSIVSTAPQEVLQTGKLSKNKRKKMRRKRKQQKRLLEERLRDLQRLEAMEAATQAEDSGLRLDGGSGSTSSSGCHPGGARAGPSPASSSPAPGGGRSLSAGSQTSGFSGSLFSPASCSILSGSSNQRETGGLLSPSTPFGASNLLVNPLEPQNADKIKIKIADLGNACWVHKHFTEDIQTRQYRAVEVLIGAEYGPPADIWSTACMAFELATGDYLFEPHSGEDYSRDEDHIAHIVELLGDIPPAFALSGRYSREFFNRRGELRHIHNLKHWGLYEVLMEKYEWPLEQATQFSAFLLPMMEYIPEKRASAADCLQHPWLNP

For `COc1cc(N(C)c2ccnc3ccc(C(F)(F)F)cc23)cc(OC)c1OC`, which % binding [1] is on record?
Its % binding is 98%.

How did the % of control [2] turn out when `CN(C)CC#Cc1ccc2[nH]c3c(c2c1)-c1nc(N)ncc1CCC3` was run?
Its % of control is 12%.

For `O[C@H]1CC[C@H](Nc2ncc3nc(Nc4c(F)cc(F)cc4F)n([C@H]4CCOC4)c3n2)CC1`, which % of control [3] is on record?
Its % of control is 89%.

For `Cc1cc([C@@H](C)Nc2ccccc2C(=O)O)c2nc(N3CCOCC3)cc(=O)n2c1` [AZD-6482], which % of control [4] is on record?
Its % of control is 85%.

With `Cc1cc(F)c(C(=O)Nc2cccc(-c3nncn3C(C)C)n2)cc1-n1cnc(C2CC2)c1` as the molecule, how does the % of control [5] read?
Its % of control is 100%.

For `Cn1cc(-n2cnc3c(NCc4nc5cc(Cl)c(Cl)cc5[nH]4)nc(N4CCOCC4)nc32)cn1`, which % of control [6] is on record?
Its % of control is -1.05%.
